Measured values published in PubChem BioAssay (NCI).
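Cells were grown in 96-well plates and exposed to each compound for 48 hours at five concentrations; endpoints were interpolated linearly between bracketing concentrations, or set to the highest concentration if not reached. The concentration for full growth arrest is given as TGI.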

Assays:
Assay in all cases: growth of human tumour cells (NCI), 48 h
[1] = test system: A549 NSCLC
[2] = test system: EKVX NSCLC
[3] = test system: HOP-62 NSCLC
[4] = test system: COLO 205 colon
[5] = test system: SF-295 CNS
[6] = test system: SNB-75 CNS
[7] = test system: MDA-MB-231 breast
[8] = test system: SK-MEL-2 melanoma
[9] = test system: SN12C renal
[10] = test system: OVCAR-4 ovarian
[11] = test system: MALME-3M melanoma
[12] = test system: ACHN renal
[13] = test system: BT-549 breast
[14] = test system: M14 melanoma
[15] = test system: MDA-MB-435
[16] = test system: HCC-2998 colon
[17] = test system: UACC-257 melanoma
[18] = test system: SF-268 CNS
[19] = test system: NCI-H226 lung
[20] = test system: MCF7 breast
[21] = test system: RXF 393 renal
[22] = test system: CAKI-1 renal
[23] = test system: SK-MEL-28 melanoma
[24] = test system: T-47D breast
[25] = test system: CCRF-CEM leukemia
[26] = test system: NCI-H460 lung
[27] = test system: SW-620 colon
[28] = test system: OVCAR-5 ovarian
[29] = test system: UO-31 renal
[30] = test system: HCT-15 colon
[31] = test system: RPMI-8226 leukemia
[32] = test system: U251 CNS
[33] = test system: 786-0 renal
[34] = test system: NCI/ADR-RES ovarian
[35] = test system: UACC-62 melanoma
[36] = test system: SK-OV-3 ovarian
[37] = test system: OVCAR-3 ovarian
[38] = test system: HT29 colon
[39] = test system: DU-145 prostate
[40] = test system: HS 578T breast
[41] = test system: SF-539 CNS
[42] = test system: HCT-116 colon
[43] = test system: SNB-19 CNS
[44] = test system: LOX IMVI melanoma
[45] = test system: A498 renal
[46] = test system: PC-3 prostate
[47] = test system: KM12 colon
[48] = test system: OVCAR-8 ovarian
[49] = test system: MDA-N
[50] = test system: NCI-H23 lung
[51] = test system: HOP-92 NSCLC
[52] = test system: K-562 leukemia
[53] = test system: HL-60(TB) leukemia
[54] = test system: MOLT-4 leukemia
[55] = test system: NCI-H522 lung
[56] = test system: SK-MEL-5 melanoma
[57] = test system: IGROV1 ovarian
[58] = test system: TK-10 renal

`O=[N+]([O-])/C(C(Cl)=C(Cl)Cl)=C(\Nc1cccc2ccccc12)n1nnc2ccccc21` was tested, and the TGI [1] was over 100 µM, the TGI [2] was over 100 µM and the TGI [3] was over 100 µM. It also gave a TGI [4] of 41 µM, a TGI [5] of over 100 µM and a TGI [6] of over 100 µM. For the same compound, the TGI [7] was over 100 µM, the TGI [8] was over 100 µM and the TGI [9] was over 100 µM. For the same compound, the TGI [10] was over 100 µM, the TGI [11] was over 100 µM and the TGI [12] was over 100 µM. It also gave a TGI [13] of 98.8 µM, a TGI [14] of over 100 µM and a TGI [15] of over 100 µM. The TGI [16] was over 100 µM, the TGI [17] was over 100 µM and the TGI [18] was over 100 µM. For the same compound, the TGI [19] was over 100 µM, the TGI [20] was over 100 µM and the TGI [21] was 79.3 µM. For the same compound, the TGI [22] was over 100 µM, the TGI [23] was over 100 µM and the TGI [24] was over 100 µM. For the same compound, the TGI [25] was over 100 µM, the TGI [26] was over 100 µM and the TGI [27] was over 100 µM. The TGI [28] was over 100 µM, the TGI [29] was over 100 µM and the TGI [30] was over 100 µM. It also gave a TGI [31] of over 100 µM, a TGI [32] of over 100 µM and a TGI [33] of over 100 µM. The TGI [34] was over 100 µM, the TGI [35] was over 100 µM and the TGI [36] was over 100 µM. For the same compound, the TGI [37] was over 100 µM, the TGI [38] was over 100 µM and the TGI [39] was over 100 µM. It also gave a TGI [40] of 39.1 µM, a TGI [41] of over 100 µM and a TGI [42] of over 100 µM. For the same compound, the TGI [43] was over 100 µM, the TGI [44] was over 100 µM and the TGI [45] was over 100 µM. The TGI [46] was over 100 µM, the TGI [47] was over 100 µM and the TGI [48] was over 100 µM. For the same compound, the TGI [49] was over 100 µM and the TGI [50] was over 100 µM.

For `Cc1ccc(I)cc1N=C=S`, the TGI [51] was over 100 µM, the TGI [1] was 82.3 µM and the TGI [2] was 63.4 µM. It also gave a TGI [3] of 59.8 µM, a TGI [4] of 34 µM and a TGI [5] of 62.8 µM. The TGI [52] was 54.7 µM, the TGI [6] was 52.7 µM and the TGI [7] was 71.1 µM. It also gave a TGI [8] of 38.6 µM, a TGI [9] of 49.3 µM and a TGI [10] of over 100 µM. The TGI [11] was 61.5 µM, the TGI [12] was 54.8 µM and the TGI [13] was 30.5 µM. The TGI [14] was 38.7 µM, the TGI [15] was 73.7 µM and the TGI [17] was 63.9 µM. The TGI [53] was 44.3 µM, the TGI [18] was 75.8 µM and the TGI [19] was 39.9 µM. For the same compound, the TGI [20] was 54.4 µM, the TGI [21] was 40.6 µM and the TGI [22] was 71.2 µM. The TGI [23] was 39.2 µM, the TGI [54] was 43.8 µM and the TGI [24] was 42.5 µM. For the same compound, the TGI [25] was 57.2 µM, the TGI [26] was 52.1 µM and the TGI [27] was over 100 µM. It also gave a TGI [28] of 50.4 µM, a TGI [55] of 36.6 µM and a TGI [29] of 33 µM. For the same compound, the TGI [30] was 34.8 µM, the TGI [31] was 54.1 µM and the TGI [32] was 48.6 µM. It also gave a TGI [56] of 30.1 µM, a TGI [33] of 60 µM and a TGI [34] of 63.3 µM. For the same compound, the TGI [35] was 31.6 µM, the TGI [57] was over 100 µM and the TGI [36] was over 100 µM. For the same compound, the TGI [37] was over 100 µM, the TGI [38] was 53 µM and the TGI [39] was 96.1 µM. It also gave a TGI [40] of 91.8 µM, a TGI [41] of 35.4 µM and a TGI [42] of 91.9 µM. For the same compound, the TGI [43] was 70.1 µM, the TGI [44] was 53.8 µM and the TGI [45] was 48.8 µM. It also gave a TGI [46] of 51.4 µM, a TGI [47] of 36.9 µM and a TGI [48] of over 100 µM. It also gave a TGI [49] of 86.5 µM, a TGI [50] of 42.1 µM and a TGI [58] of 88.7 µM.

With `C=C1C(=O)C23CC1CCC2C12CO[C@H](O)[C@H]1C(C)(C)[C@H](OC(C)=O)C[C@H]2OC3=O` (some centres not stated) the TGI [51] was 22.2 µM, the TGI [1] was over 100 µM and the TGI [2] was 29.1 µM. It also gave a TGI [4] of 28.8 µM, a TGI [5] of over 100 µM and a TGI [52] of over 100 µM. It also gave a TGI [6] of over 100 µM, a TGI [7] of 37.2 µM and a TGI [8] of 31.1 µM. The TGI [9] was 46.2 µM, the TGI [10] was over 100 µM and the TGI [11] was 28.1 µM. It also gave a TGI [12] of 29.6 µM, a TGI [13] of 21.9 µM and a TGI [14] of 53.2 µM. It also gave a TGI [15] of 44.8 µM, a TGI [16] of 54.2 µM and a TGI [17] of over 100 µM. It also gave a TGI [53] of 87.9 µM, a TGI [18] of 34.2 µM and a TGI [19] of over 100 µM. It also gave a TGI [20] of 32.4 µM, a TGI [22] of 28.8 µM and a TGI [23] of 33.2 µM. For the same compound, the TGI [54] was 82.2 µM, the TGI [24] was 40.5 µM and the TGI [25] was over 100 µM. It also gave a TGI [26] of over 100 µM, a TGI [27] of 30.5 µM and a TGI [28] of 33.3 µM. It also gave a TGI [55] of 3.63 µM, a TGI [29] of 67.7 µM and a TGI [30] of 28.8 µM. It also gave a TGI [31] of over 100 µM, a TGI [32] of over 100 µM and a TGI [56] of 77.1 µM. The TGI [33] was 29.9 µM, the TGI [34] was over 100 µM and the TGI [35] was 28.9 µM. The TGI [57] was over 100 µM, the TGI [36] was over 100 µM and the TGI [37] was 55.2 µM. For the same compound, the TGI [38] was 27.1 µM, the TGI [39] was 83.3 µM and the TGI [40] was over 100 µM. For the same compound, the TGI [41] was 41.7 µM, the TGI [42] was 28 µM and the TGI [43] was over 100 µM. It also gave a TGI [44] of 33.7 µM, a TGI [46] of over 100 µM and a TGI [47] of over 100 µM. It also gave a TGI [48] of over 100 µM, a TGI [49] of 30.6 µM and a TGI [50] of over 100 µM. It also gave a TGI [58] of 28.5 µM.
